Data as given in patent publication US10059760B2 (priority 2014, dated 2018).
Read-outs that look alike come from different tables or passages of the source.

Conditions: mouse, in vivo

| SMILES | tolerance (sc, 25 mg/kg) | tolerance (50 mg/kg) |
| --- | --- | --- |
| O=C(O)c1cn(C2CC2)c2cc(N3CCNCC3)c(F)cc2c1=O [ciprofloxacin] | favorably tested | – |
| C[C@H]1c2cccc(O)c2C(=O)C2=C(O)[C@]3(O)C(=O)C(C(N)=O)=C(O)[C@@H](N(C)C)[C@@H]3[C@@H](O)[C@@H]21 [doxycycline] | – | poorly tolerated |
